#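 Where inhibition never reached the appropriate level, the endpoint shown equals the highest concentration tested. Otherwise, values were interpolated linearly from a five-concentration, 48-hour dose response in 96-well plates. At the TGI there is no net growth.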
# Assays:
# Test in all cases: NCI anticancer screen, dose series, 48 h
# [1] = tested on: SN12C renal
# [2] = tested on: MDA-MB-435
# [3] = tested on: OVCAR-4 ovarian
# [4] = tested on: NCI/ADR-RES ovarian
# [5] = tested on: SW-620 colon
# [6] = tested on: DU-145 prostate
# [7] = tested on: TK-10 renal
# [8] = tested on: OVCAR-5 ovarian
# [9] = tested on: A498 renal
# [10] = tested on: MDA-MB-231 breast
# [11] = tested on: EKVX NSCLC
# [12] = tested on: RXF 393 renal
# [13] = tested on: M14 melanoma
# [14] = tested on: SK-MEL-28 melanoma
# [15] = tested on: OVCAR-8 ovarian
# [16] = tested on: IGROV1 ovarian
# [17] = tested on: OVCAR-3 ovarian
# [18] = tested on: UO-31 renal
# [19] = tested on: SNB-75 CNS
# [20] = tested on: MDA-N
# [21] = tested on: SK-MEL-5 melanoma
# [22] = tested on: HOP-92 NSCLC
# [23] = tested on: SNB-19 CNS
# [24] = tested on: HCT-15 colon
# [25] = tested on: NCI-H23 lung
# [26] = tested on: COLO 205 colon
# [27] = tested on: A549 NSCLC
# [28] = tested on: PC-3 prostate
# [29] = tested on: CAKI-1 renal
# [30] = tested on: SF-268 CNS
# [31] = tested on: HT29 colon
# [32] = tested on: KM12 colon
# [33] = tested on: SF-295 CNS
# [34] = tested on: U251 CNS
# [35] = tested on: ACHN renal
# [36] = tested on: SK-MEL-2 melanoma
# [37] = tested on: MALME-3M melanoma
# [38] = tested on: MOLT-4 leukemia
# [39] = tested on: HCC-2998 colon
# [40] = tested on: MCF7 breast
# [41] = tested on: 786-0 renal
# [42] = tested on: UACC-257 melanoma
# [43] = tested on: HOP-62 NSCLC
# [44] = tested on: HCT-116 colon
# [45] = tested on: RPMI-8226 leukemia
# [46] = tested on: UACC-62 melanoma
# [47] = tested on: SK-OV-3 ovarian
# [48] = tested on: BT-549 breast
# [49] = tested on: NCI-H522 lung
# [50] = tested on: K-562 leukemia
# [51] = tested on: NCI-H460 lung
# [52] = tested on: HS 578T breast
compound,measurement,setting,value
C[N+]12CCN(c3ccccc31)c1ccccc12,TGI,[1],> 10 µM
same,TGI,[2],> 10 µM
same,TGI,[3],> 10 µM
same,TGI,[4],> 10 µM
same,TGI,[5],> 10 µM
same,TGI,[6],> 10 µM
same,TGI,[7],> 10 µM
same,TGI,[8],> 10 µM
same,TGI,[9],> 10 µM
same,TGI,[10],> 10 µM
same,TGI,[11],> 10 µM
same,TGI,[12],> 10 µM
same,TGI,[13],> 10 µM
same,TGI,[14],> 10 µM
same,TGI,[15],> 10 µM
same,TGI,[16],> 10 µM
same,TGI,[17],> 10 µM
same,TGI,[18],> 10 µM
same,TGI,[19],> 10 µM
same,TGI,[20],8.56 µM
same,TGI,[21],5.42 µM
same,TGI,[22],> 10 µM
same,TGI,[23],> 10 µM
same,TGI,[24],> 10 µM
same,TGI,[25],> 10 µM
same,TGI,[26],> 10 µM
same,TGI,[27],> 10 µM
same,TGI,[28],> 10 µM
same,TGI,[29],> 10 µM
same,TGI,[30],> 10 µM
same,TGI,[31],> 10 µM
same,TGI,[32],> 10 µM
same,TGI,[33],> 10 µM
same,TGI,[34],> 10 µM
same,TGI,[35],> 10 µM
C[C@@H]1CCC2C(C)(C)C(/C=C\C=O)C3(C)OC213 (stereo partly specified),TGI,[2],> 100 µM
same,TGI,[3],> 100 µM
same,TGI,[4],> 100 µM
same,TGI,[36],> 100 µM
same,TGI,[37],72.1 µM
same,TGI,[5],> 100 µM
same,TGI,[38],86.9 µM
same,TGI,[39],78.4 µM
same,TGI,[40],> 100 µM
same,TGI,[6],> 100 µM
same,TGI,[7],> 100 µM
same,TGI,[8],69.6 µM
same,TGI,[9],> 100 µM
same,TGI,[10],> 100 µM
same,TGI,[41],> 100 µM
same,TGI,[42],> 100 µM
same,TGI,[11],> 100 µM
same,TGI,[12],> 100 µM
same,TGI,[13],> 100 µM
same,TGI,[14],> 100 µM
same,TGI,[43],> 100 µM
same,TGI,[15],44.5 µM
same,TGI,[16],> 100 µM
same,TGI,[17],> 100 µM
same,TGI,[18],> 100 µM
same,TGI,[44],98.2 µM
same,TGI,[19],> 100 µM
same,TGI,[20],> 100 µM
same,TGI,[45],84.5 µM
same,TGI,[21],53.2 µM
same,TGI,[22],93.9 µM
same,TGI,[46],> 100 µM
same,TGI,[23],> 100 µM
same,TGI,[24],> 100 µM
same,TGI,[25],> 100 µM
same,TGI,[26],55.4 µM
same,TGI,[47],> 100 µM
same,TGI,[27],> 100 µM
same,TGI,[48],> 100 µM
same,TGI,[28],> 100 µM
same,TGI,[49],> 100 µM
same,TGI,[29],> 100 µM
same,TGI,[50],> 100 µM
same,TGI,[30],> 100 µM
same,TGI,[31],62 µM
same,TGI,[32],> 100 µM
same,TGI,[33],> 100 µM
same,TGI,[34],> 100 µM
same,TGI,[35],> 100 µM
same,TGI,[51],> 100 µM
same,TGI,[52],75.6 µM

# From PubChem BioAssay (NCI)
